Measurements published in ChEMBL document CHEMBL1201862, “PubChem BioAssay data set” (2004).
Calls of active or inactive are those of the source.

Assays:
Kallikrein-7 = Kallikrein-7 (Homo sapiens, UniProt P49862); test: Fluorescence Intensity-based biochemical primary high throughput dose response assay to identify activators of kallikrein-7 (K7) zymogen.
cells [1] = assay type: functional, cell-based
cells [2] = assay type: functional, cell-based; remark: listed apart in the source
[3] = target: Nuclear receptor subfamily 0 group B member 1 (Homo sapiens, UniProt P51843); assay type: functional, cell-based;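 also: HEK293T cells transfected with SF-1 and DAX-1 plus StAR promoter luciferase reporter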
cells [4] = assay type: functional, cell-based; remark: listed apart in the source
Beta-lactamase [5] = target: T1, Beta-lactamase (Pseudomonas aeruginosa, UniProt Q79MP6); test: […] counterscreen for selective VIM-2 inhibitors: dose response biochemical high throughput screening assay to identify inhibitors of IMP-1 metallo-beta-lactamase.
Beta-lactamase [6] = target: Beta-lactamase (Salmonella choleraesuis (strain SC-B67), UniProt Q5J463); test: Epi-absorbance-based counterscreen for selective VIM-2 inhibitors: dose response biochemical high throughput screening assay to identify inhibitors of TEM-1 serine-beta-lactamase.
Beta-lactamase [7] = target: T1, Beta-lactamase; test: inhibition of IMP-1 beta-lactamase activity – biochemical, epi-absorbance, selectivity assay for VIM-2 inhibitor project, dose response (AID 1920)
[8] = target: Luciferin 4-monooxygenase (Photinus pyralis, UniProt P08659); test: inhibition of purified Photinus pyralis luciferase – biochemical, luminescence, dose response (AID 1891)
cells [9] = assay type: functional, cell-based; settings: HEK-CNG
Galanin receptor type 3 = Galanin receptor type 3 (Homo sapiens, UniProt O60755); test: Fluorescence-based cell-based primary high throughput dose response assay to identify antagonists of the Galanin Receptor 3 (GalR3).; assay type: functional
[10] = Luminescence Cell-Based Dose Confirmation HTS to Identify Inhibitors of Platelet Dense Granule Release. [Related pubchem assays: 1663 (Primary HTS), 1678 (Summary of Project)]; assay type: functional
cells [11] = test: cells
[12] = target: T2, Beta-2 adrenergic receptor (Homo sapiens, UniProt P07550); test: Dose response for HTS for Beta-2AR agonists via FAP method from Powderset3.; assay type: functional
[13] = target: T2, Beta-2 adrenergic receptor; test: ADRB2 activation measured by internalization – cell-based, FAP fluorogen, flow cytometry, cherry pick 1, dose response (AID 588763); assay type: functional
[14] = Counterscreen for […] of the human trace amine associated receptor 1 (TAAR1): Fluorescence-based cell-based high throughput dose response assay to identify nonselective Ga16 agonists.; assay type: functional
[15] = target: T3, Trace amine-associated receptor 1 (Homo sapiens, UniProt Q96RJ0); test: Counterscreen for antagonists of the human trace amine associated receptor 1 (hTAAR1): Fluorescence-based cell-based high throughput dose response assay to identify TAAR1 Agonists.; assay type: functional
T3 sequence (Q96RJ0 whole entry): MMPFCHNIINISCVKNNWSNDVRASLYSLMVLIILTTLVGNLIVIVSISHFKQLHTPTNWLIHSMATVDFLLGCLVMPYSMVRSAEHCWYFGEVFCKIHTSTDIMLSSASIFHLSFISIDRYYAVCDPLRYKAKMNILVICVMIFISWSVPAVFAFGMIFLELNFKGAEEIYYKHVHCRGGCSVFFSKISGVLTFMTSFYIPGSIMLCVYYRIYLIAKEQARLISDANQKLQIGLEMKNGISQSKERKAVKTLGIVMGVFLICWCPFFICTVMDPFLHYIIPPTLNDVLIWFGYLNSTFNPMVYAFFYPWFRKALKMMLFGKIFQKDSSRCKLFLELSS

[16] = Counterscreen for antagonists of the human trace amine associated receptor 1 (hTAAR1): Fluorescence-based cell-based high throughput dose response assay to identify nonselective Ga16 antagonists.; assay type: functional
[17] = target: T3, Trace amine-associated receptor 1; test: Fluorescence-based cell-based high throughput dose response assay to identify antagonists of the human trace amine associated receptor 1 (TAAR1).; assay type: functional
H9c2 = test: cells; assay type: functional, cell-based; settings: Rattus norvegicus, H9c2, Myocardium;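 also: confirmatory concentration-response retest of ultra-high-throughput screening hits for modulation of myocardial damage; cell death induced by hydrogen peroxide oxidative stress; compound pretreatment for 60 min then peroxide exposure for 2 h; potency is for protecting the cells against peroxide damage rather than for killing them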
Beta-galactosidase = Beta-galactosidase (Escherichia coli, UniProt Q8VNN2); test: Dose response counterscreen for EBI2 assay utilizing the enzyme, b-galactosidase.; assay type: functional
[18] = target: T4, Oxysterols receptor LXR-beta (Homo sapiens, UniProt P55055); assay type: functional, cell-based;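 also: agonist activity at LXR measured by a cell-based luminescence readout across a dose range, run as a counterscreen for daf-12 agonists; HEK293 cells with Gal4-LXR fusion and GAL4-driven luciferase reporter; potency for activation of Gal4-LXR reporter so compounds are agonists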
T4 sequence (P55055 whole entry): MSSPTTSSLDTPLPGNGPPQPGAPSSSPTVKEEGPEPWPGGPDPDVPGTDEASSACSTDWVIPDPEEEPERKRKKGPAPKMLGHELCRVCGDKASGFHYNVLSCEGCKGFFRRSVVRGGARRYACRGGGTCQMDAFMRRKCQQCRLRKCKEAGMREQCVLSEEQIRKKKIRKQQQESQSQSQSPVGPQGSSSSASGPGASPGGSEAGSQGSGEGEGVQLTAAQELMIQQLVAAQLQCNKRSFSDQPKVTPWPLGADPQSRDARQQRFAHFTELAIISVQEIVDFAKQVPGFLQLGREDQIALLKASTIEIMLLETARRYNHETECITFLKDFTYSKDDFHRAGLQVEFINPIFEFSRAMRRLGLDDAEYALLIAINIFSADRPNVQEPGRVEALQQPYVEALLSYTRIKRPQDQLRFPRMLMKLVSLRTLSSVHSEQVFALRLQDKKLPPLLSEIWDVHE

[19] = target: 1-phosphatidylinositol 4,5-bisphosphate phosphodiesterase gamma-1 (Homo sapiens, UniProt P19174); test: Counterscreen for inhibitors of phospholipase C isozymes (PLC-B3): Fluorescence-based biochemical high throughput dose response assay to identify inhibitors of phospholipase C isozymes (PLC-gamma1).
[20] = target: 1-phosphatidylinositol 4,5-bisphosphate phosphodiesterase beta-3 (Homo sapiens, UniProt Q01970); test: Fluorescence-based biochemical high throughput dose response assay to identify inhibitors of phospholipase C isozymes (PLC-B3).
Protein skinhead-1 = target: T5, Protein skinhead-1 (Caenorhabditis elegans, UniProt P34707); assay type: functional
T5 sequence (P34707 whole entry): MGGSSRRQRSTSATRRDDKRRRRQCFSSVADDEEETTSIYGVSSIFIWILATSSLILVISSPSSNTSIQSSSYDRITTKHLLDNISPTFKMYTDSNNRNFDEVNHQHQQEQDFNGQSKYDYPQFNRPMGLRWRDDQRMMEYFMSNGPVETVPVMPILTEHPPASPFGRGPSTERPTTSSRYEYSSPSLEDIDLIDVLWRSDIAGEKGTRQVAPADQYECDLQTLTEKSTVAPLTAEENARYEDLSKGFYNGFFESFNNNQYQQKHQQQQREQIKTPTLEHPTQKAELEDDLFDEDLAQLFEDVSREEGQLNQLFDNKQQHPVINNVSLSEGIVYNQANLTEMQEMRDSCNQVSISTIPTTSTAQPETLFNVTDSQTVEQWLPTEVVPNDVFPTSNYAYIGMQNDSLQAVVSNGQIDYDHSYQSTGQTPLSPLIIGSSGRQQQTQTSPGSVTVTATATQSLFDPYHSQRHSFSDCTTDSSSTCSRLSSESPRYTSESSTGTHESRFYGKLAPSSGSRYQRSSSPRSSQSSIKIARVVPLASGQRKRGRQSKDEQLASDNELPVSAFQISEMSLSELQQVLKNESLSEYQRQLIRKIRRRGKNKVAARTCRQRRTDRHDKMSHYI

cells [21] = settings: HEK293;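 also: cells exposed to compound for 48 hours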
[22] = target: T2, Beta-2 adrenergic receptor; test: Dose response for HTS for Beta-2AR agonists via FAP method from Powderset2.; assay type: functional
Vero = test: viability loss in Vero cells – cell-based, plate reader, cherry-pick samples, cytotoxicity control, dose response (AID 687020); assay type: functional; settings: Chlorocebus sabaeus
Paired box protein Pax-8 = Paired box protein Pax-8 (Homo sapiens, UniProt Q06710); test: PAX8 transcriptional activity inhibition in RMG-I – RMG-I cells, luciferase, cherry-pick, dose response (AID 687027); assay type: functional, cell-based;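 also: luciferase reporter driven by Pax8 target thyroperoxidase promoter measured by SteadyGlo luminescence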
[23] = A2780 cell killing – plate reader, dry powder samples, cytotoxicity control, dose response (AID 743046); assay type: functional, cell-based
[24] = OVCAR8 cell viability loss – plate reader, dry powder samples, PAX8 project, dose response (AID 743197); assay type: functional, cell-based; settings: OVCAR-8
[25] = OVCAR-3 cell viability loss – plate reader, dry powder samples, PAX8 inhibitor project, dose response (AID 743044); assay type: functional, cell-based
[26] = HEK293 Cytotoxicity Assay Measured in Cell-Based System Using Plate Reader - 7071-01_Inhibitor_Dose_CherryPick_Activity_Set2.; assay type: functional
Cryptococcus neoformans = test: PubChem AID 686997; assay type: functional, organism-based
HEK293 = test: viability loss in HEK293T cells – cell-based, ATP luminescence, cherry-pick samples, cytotoxicity control, dose response (AID 687005); assay type: functional; settings: Homo sapiens;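 also: cells exposed to compound for 48 hours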
[27] = target: Metabotropic glutamate receptor 3 (Rattus norvegicus, UniProt P31422); test: inhibitors of rat mGlu3 Galpha15 signaling – TREx293 cells, calcium flux, mGlu3 NAM project, dose response (AID 651840); assay type: functional
[28] = A Cell-Based Confirmatory Screen for Compounds that Inhibit VEEV, TC-83 (3).; assay type: functional
Vasopressin V2 receptor = Vasopressin V2 receptor (Homo sapiens, UniProt P30518); test: Late-stage results from the probe development effort to identify antagonists of arginine vasopressin receptor 1a (AVPR1a): fluorescence-based cell-based dose response AVPR2 inhibition counterscreen assay.; assay type: functional
[29] = Late-stage results from the probe development effort to identify antagonists of arginine vasopressin receptor 1a (AVPR1a): fluorescence-based cell-based dose response OXTR inhibition counterscreen assay.; assay type: functional
[30] = Late-stage results from the probe development effort to identify antagonists of arginine vasopressin receptor 1a (AVPR1a): fluorescence-based cell-based dose response AVPR1a inhibition assay.; assay type: functional
Vasopressin V1b receptor = Vasopressin V1b receptor (Homo sapiens, UniProt P47901); test: Late-stage results from the probe development effort to identify antagonists of arginine vasopressin receptor 1a (AVPR1a): fluorescence-based cell-based dose response AVPR1b inhibition counterscreen assay.; assay type: functional
[31] = viability loss in HEK293 kidney cells – cell-based, cherry-picks, set 5, cytotoxicity control, dose response (AID 1053117); assay type: functional
[32] = viability loss in HepG2 hepatoma cells – cell-based, cherry-picks, set 5, cytotoxicity control, dose response (AID 1053118); assay type: functional
[33] = blockers of FN fibrillogenesis by fibroblasts – AH1F cells, Alexa488-FN fluorescence, cherry-picks, dose response (AID 1035475); assay type: functional, cell-based
[34] = target: Potassium channel subfamily K member 9 (Homo sapiens, UniProt Q9NPC2); test: KCNK9 flux blockade, concentration-response – cell-based, FluxOR thallium flux, selectivity assay for TASK1 inhibitor project, SAR follow-up (AID 652211); assay type: functional;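 also: potency is for inhibitors of the channel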

T2 sequence (P07550 whole entry): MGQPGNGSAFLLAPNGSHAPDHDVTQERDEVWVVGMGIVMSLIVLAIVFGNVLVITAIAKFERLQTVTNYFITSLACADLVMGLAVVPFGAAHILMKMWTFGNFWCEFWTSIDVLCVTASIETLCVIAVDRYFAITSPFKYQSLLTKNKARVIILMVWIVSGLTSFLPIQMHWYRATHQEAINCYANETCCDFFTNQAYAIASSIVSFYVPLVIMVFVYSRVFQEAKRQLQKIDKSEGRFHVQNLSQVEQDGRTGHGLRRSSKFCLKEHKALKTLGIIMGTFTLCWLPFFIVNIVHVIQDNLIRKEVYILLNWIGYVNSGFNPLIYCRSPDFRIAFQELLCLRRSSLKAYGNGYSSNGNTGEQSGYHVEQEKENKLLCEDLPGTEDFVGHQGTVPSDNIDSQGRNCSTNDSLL
T1 sequence (Q79MP6 whole entry): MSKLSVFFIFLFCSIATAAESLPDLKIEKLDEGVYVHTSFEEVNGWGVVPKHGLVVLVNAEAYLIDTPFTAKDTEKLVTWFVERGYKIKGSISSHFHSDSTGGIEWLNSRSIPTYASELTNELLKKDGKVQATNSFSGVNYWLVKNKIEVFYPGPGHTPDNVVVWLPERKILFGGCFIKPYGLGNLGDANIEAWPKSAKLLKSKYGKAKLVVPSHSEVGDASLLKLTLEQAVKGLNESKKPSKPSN
Chain of Paired box protein Pax-8 (Q06710 whole entry): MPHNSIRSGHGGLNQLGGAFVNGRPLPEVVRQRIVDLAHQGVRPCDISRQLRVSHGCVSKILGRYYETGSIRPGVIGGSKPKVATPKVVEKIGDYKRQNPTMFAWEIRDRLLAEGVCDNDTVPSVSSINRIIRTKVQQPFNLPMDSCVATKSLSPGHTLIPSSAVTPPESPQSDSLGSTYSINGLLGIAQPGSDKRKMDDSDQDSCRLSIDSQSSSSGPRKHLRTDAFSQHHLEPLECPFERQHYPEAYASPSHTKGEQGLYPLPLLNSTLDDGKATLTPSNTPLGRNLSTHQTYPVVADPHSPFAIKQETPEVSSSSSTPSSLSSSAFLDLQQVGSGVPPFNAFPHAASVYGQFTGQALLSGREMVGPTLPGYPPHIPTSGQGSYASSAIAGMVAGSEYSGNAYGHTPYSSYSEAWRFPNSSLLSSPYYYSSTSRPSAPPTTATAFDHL
Chain of Metabotropic glutamate receptor 3 (P31422 whole entry): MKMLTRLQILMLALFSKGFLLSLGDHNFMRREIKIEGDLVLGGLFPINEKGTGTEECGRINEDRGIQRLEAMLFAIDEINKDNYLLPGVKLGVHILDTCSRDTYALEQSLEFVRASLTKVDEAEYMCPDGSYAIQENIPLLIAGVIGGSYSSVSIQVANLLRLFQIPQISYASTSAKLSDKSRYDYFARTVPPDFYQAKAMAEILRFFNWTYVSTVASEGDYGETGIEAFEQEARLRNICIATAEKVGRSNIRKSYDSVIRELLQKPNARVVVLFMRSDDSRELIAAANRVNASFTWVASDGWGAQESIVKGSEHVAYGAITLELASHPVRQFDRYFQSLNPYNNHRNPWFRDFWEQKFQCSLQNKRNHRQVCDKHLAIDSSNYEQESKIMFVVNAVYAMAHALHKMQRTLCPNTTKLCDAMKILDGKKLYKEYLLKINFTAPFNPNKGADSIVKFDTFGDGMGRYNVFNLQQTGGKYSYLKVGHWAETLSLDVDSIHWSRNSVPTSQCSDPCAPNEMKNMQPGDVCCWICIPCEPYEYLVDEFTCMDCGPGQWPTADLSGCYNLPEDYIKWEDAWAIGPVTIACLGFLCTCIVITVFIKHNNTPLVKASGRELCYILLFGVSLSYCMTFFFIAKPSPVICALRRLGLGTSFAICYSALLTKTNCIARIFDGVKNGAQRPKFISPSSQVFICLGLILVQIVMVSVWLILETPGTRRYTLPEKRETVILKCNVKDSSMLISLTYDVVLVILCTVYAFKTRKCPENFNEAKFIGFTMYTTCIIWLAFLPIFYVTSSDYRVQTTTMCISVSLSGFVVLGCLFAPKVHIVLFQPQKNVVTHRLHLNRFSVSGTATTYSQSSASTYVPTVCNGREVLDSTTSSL
Chain of Galanin receptor type 3 (O60755 whole entry): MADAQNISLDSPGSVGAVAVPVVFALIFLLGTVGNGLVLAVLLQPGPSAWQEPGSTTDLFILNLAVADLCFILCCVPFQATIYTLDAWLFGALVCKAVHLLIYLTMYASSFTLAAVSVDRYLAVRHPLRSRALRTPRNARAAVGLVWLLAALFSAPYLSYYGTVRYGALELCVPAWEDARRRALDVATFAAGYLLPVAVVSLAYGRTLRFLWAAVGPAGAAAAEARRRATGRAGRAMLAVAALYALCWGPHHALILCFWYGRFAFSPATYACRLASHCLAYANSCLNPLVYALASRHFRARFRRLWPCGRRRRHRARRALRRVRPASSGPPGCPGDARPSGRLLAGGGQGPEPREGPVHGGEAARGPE
Chain of Vasopressin V2 receptor (P30518 whole entry): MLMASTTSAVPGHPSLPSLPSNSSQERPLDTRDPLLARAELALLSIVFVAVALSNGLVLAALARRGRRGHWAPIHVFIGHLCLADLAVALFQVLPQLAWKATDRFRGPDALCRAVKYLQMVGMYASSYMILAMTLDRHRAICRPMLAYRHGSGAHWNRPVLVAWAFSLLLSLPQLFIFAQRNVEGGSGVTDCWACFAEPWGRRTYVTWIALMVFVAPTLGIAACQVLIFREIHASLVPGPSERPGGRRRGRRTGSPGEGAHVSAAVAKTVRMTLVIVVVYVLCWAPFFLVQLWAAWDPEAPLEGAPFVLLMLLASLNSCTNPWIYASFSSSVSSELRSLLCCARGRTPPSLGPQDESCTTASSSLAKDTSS
Chain of Beta-lactamase (Salmonella choleraesuis (strain SC-B67), UniProt Q5J463) (Q5J463 whole entry): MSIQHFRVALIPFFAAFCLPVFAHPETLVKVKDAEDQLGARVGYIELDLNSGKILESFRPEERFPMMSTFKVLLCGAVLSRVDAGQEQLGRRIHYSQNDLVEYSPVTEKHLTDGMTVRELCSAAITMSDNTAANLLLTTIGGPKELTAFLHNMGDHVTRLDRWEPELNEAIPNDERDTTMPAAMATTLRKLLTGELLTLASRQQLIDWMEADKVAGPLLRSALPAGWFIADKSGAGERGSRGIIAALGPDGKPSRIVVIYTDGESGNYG
Chain of Beta-galactosidase (Q8VNN2 whole entry, the tested form may be a part): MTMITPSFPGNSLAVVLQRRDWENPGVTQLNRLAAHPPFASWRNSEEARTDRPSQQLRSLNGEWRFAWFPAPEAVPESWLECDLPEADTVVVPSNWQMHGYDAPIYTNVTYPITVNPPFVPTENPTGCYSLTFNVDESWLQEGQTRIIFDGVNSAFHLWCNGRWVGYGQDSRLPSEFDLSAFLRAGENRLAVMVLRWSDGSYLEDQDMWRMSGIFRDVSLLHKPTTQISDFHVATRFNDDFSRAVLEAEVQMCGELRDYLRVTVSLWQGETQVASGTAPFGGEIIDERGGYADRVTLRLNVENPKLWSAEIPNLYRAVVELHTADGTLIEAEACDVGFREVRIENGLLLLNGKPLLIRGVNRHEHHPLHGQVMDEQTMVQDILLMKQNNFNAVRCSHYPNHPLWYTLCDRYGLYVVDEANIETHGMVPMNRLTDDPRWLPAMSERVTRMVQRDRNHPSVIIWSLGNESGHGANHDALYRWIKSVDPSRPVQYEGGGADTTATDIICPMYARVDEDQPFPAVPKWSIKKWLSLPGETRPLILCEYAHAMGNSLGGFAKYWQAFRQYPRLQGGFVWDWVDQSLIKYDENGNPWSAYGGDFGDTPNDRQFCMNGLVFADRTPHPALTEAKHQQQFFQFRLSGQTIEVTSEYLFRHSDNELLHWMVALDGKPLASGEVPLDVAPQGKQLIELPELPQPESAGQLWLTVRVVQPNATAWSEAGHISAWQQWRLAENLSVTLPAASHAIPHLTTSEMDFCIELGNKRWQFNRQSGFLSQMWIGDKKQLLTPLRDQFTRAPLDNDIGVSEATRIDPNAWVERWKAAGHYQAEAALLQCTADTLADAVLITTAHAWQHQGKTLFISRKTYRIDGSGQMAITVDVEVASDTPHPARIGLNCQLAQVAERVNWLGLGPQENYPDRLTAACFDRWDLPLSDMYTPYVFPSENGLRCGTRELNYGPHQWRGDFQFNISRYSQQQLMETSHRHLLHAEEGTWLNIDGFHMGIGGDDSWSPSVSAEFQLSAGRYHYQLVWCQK
Chain of Kallikrein-7 (P49862 whole entry): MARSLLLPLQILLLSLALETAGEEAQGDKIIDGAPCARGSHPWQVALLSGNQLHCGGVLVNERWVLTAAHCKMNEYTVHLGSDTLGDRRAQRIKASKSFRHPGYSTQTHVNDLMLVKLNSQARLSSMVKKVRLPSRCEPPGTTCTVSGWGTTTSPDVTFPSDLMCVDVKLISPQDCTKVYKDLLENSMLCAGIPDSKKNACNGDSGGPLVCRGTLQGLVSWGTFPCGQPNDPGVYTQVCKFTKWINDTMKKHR
Chain of Luciferin 4-monooxygenase (P08659 whole entry): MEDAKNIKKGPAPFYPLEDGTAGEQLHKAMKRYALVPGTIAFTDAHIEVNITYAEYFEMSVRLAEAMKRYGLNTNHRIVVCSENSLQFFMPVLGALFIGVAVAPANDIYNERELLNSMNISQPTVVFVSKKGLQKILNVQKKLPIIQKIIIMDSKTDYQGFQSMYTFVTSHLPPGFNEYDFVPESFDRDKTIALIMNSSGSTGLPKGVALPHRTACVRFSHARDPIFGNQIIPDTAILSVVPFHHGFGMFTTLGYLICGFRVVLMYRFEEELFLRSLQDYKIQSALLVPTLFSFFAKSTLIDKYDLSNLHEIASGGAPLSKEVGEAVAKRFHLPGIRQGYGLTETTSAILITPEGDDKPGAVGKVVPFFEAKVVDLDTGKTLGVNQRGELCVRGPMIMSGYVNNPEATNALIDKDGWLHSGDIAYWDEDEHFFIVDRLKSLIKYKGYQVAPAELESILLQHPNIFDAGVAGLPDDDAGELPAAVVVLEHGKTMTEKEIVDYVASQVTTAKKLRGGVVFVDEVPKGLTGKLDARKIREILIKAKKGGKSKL

COc1ccc(-c2ccc3nnc(SCC(=O)NCC4CCCO4)n3n2)cc1 (stereo unspecified)
EC50 (Kallikrein-7): > 69.5 µM (inactive)

Cc1cc(C)c2nc(N3CCN(C(=O)c4ccco4)CC3)sc2c1
EC50 (cells [1]): 55.3 µM (active)
IC50 (cells [2]): > 67.5 µM (inactive)
IC50 [3]: > 67.5 µM (inactive)
EC50 (cells [4]): > 350 µM (not active)

O=C(CSc1nnc(NC(=O)c2ccccc2[N+](=O)[O-])s1)NCc1ccco1
IC50 (Beta-lactamase [5]): > 59.6 µM (inactive)
IC50 (Beta-lactamase [6]): > 59.6 µM (inactive)
IC50 (Beta-lactamase [7]): > 59.6 µM (inactive)

CC1CC(=O)NN=C1c1ccc(N(C)C)c([N+](=O)[O-])c1 (stereo unspecified)
EC50 [8]: > 112 µM (not active)
EC50 (cells [9]): > 29.9 µM (inactive)
IC50 (Galanin receptor type 3): 1.72 µM (active)
EC50 [10]: 0.149 µM (active)

C=CCc1c(O)c(CC)cc2c(C)cc(=O)oc12
AC50 (cells [11]): 0.903 µM (active)

C=CCn1c(CCNC(=O)c2cccs2)nnc1SCC(=O)c1ccc(Cl)cc1
EC50 [12]: 0.00153 µM (active)
EC50 [13]: 0.167 µM (active)

CN1C(=O)CSc2ccc(NC(=O)Nc3ccccn3)cc21
EC50 [14]: > 29.9 µM (inactive)
EC50 [15]: > 29.9 µM (inactive)
IC50 [16]: > 29.9 µM (inactive)
IC50 [17]: 5.8 µM (active)
IC50 (H9c2): 49 µM (inactive)

COc1ccc(NC(=O)c2ccc(OC(=S)N(C)c3ccc(OC)cc3)cc2)cc1
IC50 (Beta-galactosidase): > 80 µM (inactive)

O=C(/C=C/c1ccccc1)N1CCC(c2ccccc2)C1 (stereo unspecified)
EC50 [18]: > 67.5 µM (inactive)

Cc1c(N2C(=O)c3cccc4cccc(c34)C2=O)c(=O)n(-c2ccccc2)n1C
IC50 [19]: > 122 µM (inactive)
IC50 [20]: > 122 µM (inactive)

Cc1cc2cc(CNC(=O)c3ccco3)ccc2n1C
IC50 (Protein skinhead-1): 73.3 µM (inactive)
AC50 (cells [21]): > 52 µM (inactive)

CN(CC(=O)N1CCN(c2ccccn2)CC1)S(=O)(=O)c1ccc(Cl)cc1
EC50 [13]: 0.0396 µM (active)
EC50 [22]: 0.357 µM (active)

O=C(Nc1ccc2c(c1)OCO2)c1cc(C2CCCCN2C(=O)OCCF)on1 (stereo unspecified)
AC50 (Vero): 31.8 µM (active)

C[C@@H]1CCCCO[C@H](CN(C)C(=O)c2ccccc2)[C@H](C)CN([C@@H](C)CO)C(=O)c2cc(NC(=O)Nc3ccc(C(F)(F)F)cc3)ccc2O1
AC50 (Paired box protein Pax-8): 6.57 µM (active)
AC50 [23]: 64.1 µM (active)
AC50 [24]: 34.4 µM (active)
AC50 [25]: 19.9 µM (active)

COC(=O)C1=C(C)N(Cc2ccc(Br)cc2)C(=S)NC1c1ccccc1 (stereo unspecified)
AC50 [26]: 19.8 µM (active)
AC50 (Cryptococcus neoformans): 18.8 µM (active)
AC50 (HEK293): 19.8 µM (active)

COc1ccc(C#Cc2ccc(C(=O)N3CC4CCC(=O)C4C3)cc2)cc1 (stereo unspecified)
IC50 [27]: 2.05 µM

CN(C(=O)Cc1cccs1)c1nc2c(s1)CCCC2
IC50 [28]: 2.92 µM (active)

N#Cc1ccc(N2CCC(C(=O)N(CC3CC3)c3ccc(Cl)cc3)CC2)nc1
IC50 (Vasopressin V2 receptor): 30.2 µM (inactive)
IC50 [29]: 20.1 µM (inactive)
IC50 [30]: 0.8 µM (active)
IC50 (Vasopressin V1b receptor): 25.7 µM (inactive)

CO[C@H]1CN(C)C(=O)c2ccc(NC(=O)Nc3cc(Cl)cc(Cl)c3)cc2OC[C@H](C)NC[C@@H]1C
AC50 [31]: 41.1 µM (active)
AC50 [32]: 30.9 µM (active)

Cc1ccc(S(=O)(=O)N2CC[C@@H]3[C@H]2c2cc(-c4cccc(C(=O)N(C)C)c4)ccc2N[C@@H]3CO)cc1
AC50 [33]: 4.45 µM (active)

COc1ccccc1C(=O)Nc1cccc(NC(=O)c2ccccc2)c1
IC50 [34]: 1.74 µM (active)
